Tests used:
[1] = target: T1, TLR8 (Homo sapiens, UniProt Q9NR97); assay: Cell activity assay of TLR8 (HEK-BLUE-hTLR8, SEAP reporter, Quanti-Blue); format: cell-based; conditions: HEK-BLUE-hTLR8 cells, 24 hours
T1 construct: host or cells: HEK293 (HEK-BLUE-hTLR8)
T1 sequence (Q9NR97 27-1041): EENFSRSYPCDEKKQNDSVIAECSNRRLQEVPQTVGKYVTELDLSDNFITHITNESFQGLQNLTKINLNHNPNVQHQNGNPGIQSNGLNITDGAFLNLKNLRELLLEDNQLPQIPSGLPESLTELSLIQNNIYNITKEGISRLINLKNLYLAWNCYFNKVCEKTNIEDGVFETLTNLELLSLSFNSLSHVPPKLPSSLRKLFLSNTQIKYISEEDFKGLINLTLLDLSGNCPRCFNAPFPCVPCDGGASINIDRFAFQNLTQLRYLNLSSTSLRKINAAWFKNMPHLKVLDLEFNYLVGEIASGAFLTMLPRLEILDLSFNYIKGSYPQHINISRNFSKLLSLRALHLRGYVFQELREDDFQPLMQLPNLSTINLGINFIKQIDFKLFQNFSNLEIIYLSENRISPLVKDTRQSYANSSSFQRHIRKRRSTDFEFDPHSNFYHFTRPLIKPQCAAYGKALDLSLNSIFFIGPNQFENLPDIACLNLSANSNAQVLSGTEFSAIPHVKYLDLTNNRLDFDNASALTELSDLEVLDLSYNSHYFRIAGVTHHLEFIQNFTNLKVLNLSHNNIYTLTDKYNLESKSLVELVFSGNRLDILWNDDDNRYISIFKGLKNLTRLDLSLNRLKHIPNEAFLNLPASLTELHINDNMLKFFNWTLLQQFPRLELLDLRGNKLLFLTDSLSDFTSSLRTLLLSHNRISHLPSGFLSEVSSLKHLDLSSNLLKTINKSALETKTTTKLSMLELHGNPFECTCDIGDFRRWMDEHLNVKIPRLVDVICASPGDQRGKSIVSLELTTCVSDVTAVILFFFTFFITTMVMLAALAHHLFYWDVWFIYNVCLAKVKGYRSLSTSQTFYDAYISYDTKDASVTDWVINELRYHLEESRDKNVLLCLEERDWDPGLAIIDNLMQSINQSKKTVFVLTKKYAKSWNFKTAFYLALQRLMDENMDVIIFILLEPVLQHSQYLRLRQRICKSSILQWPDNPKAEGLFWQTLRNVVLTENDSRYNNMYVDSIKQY
Experimental: (§1) In this experiment, TLR7 and TLR8 bioactivity assays of the compound of formula I were determined using a cellular test. This method was performed in human embryonic kidney cells (HEK293) expressing TLR family members such as TLR4, TLR7, TLR8, or TLR9. TLR agonist activates TLR, causing downstream NF-KB activation, thus activating the secreted embryonic alkaline phosphatase (SEAP) reporter gene. Quanti-Blue (InvivoGen) reagent was used to assay the SEAP activity, thus reflecting the activity of TLR7 and TLR8 agonists.
(§2) The detailed experimental method is as follows:
HEK-BLUE-hTLR7 and HEK-BLUE-hTLR8 cell lines were purchased from Invivogen company and cultured in DMEM medium containing 4.5 g/L glucose (Sigma-Aldrich) and 10% fetal bovine serum under a condition of a temperature of 37° C., a humidity of 95%, and 5% CO2.
The test concentration of the compound ranged from 0.5 nM to 15 μM, with a total of 10 concentration gradients. TLR7 or TLR8 agonists with known activity were added thereto as positive controls, and 1 μL of DMSO as a negative control.
Cell treatment was as follows: The cells were removed from the incubator and centrifuged to remove the culture medium, resuspended in a T-150 flask with 10 mL of pre-warmed PBS. 12 mL of pre-warmed culture medium was added thereto, and the cells were pipetted gently up and down, and counted under a microscope. A single cell suspension of 200,000 cells/mL was prepared immediately with culture medium, and 200 μL/well (40,000 cells/well) of the cell suspension was added to a 96-well plate. The final concentration of DMSO was 0.5%.
The compound was added thereto, and the mixture was incubated in a 5% CO2 incubator at 37° C. for 24 hours.
20 μL/well of supernatant was pipetted into 180 μL of Quanti-Blue preheated to 37° C., and the mixture was incubated at 37° C. for 1.5 hours, and the absorbance (OD value) at 650 nm was measured with a spectrophotometer. The calculation formula for the agonistic effect is as follows: • Effect %=(average OD value of the administration group-average OD value of the DMSO group)/(average OD value of the positive drug group-average OD value of the DMSO group)×100 • The concentration-effect curves were fitted with Graphpad software, and EC50 was calculated. The test results are shown in Table 4 (A represents <100 nM, B represents 100 nM to 250 nM, C represents 250 nM to […], D represents >2 μM, / represents not tested).

[2] = target: T2, TLR7 (Homo sapiens, UniProt Q9NYK1); assay: Cell activity assay of TLR7 (HEK-BLUE-hTLR7, SEAP reporter, Quanti-Blue); format: cell-based; conditions: HEK-BLUE-hTLR7 cells, 24 hours
T2 construct: host or cells: HEK293 (HEK-BLUE-hTLR7)
T2 sequence (Q9NYK1 27-1049): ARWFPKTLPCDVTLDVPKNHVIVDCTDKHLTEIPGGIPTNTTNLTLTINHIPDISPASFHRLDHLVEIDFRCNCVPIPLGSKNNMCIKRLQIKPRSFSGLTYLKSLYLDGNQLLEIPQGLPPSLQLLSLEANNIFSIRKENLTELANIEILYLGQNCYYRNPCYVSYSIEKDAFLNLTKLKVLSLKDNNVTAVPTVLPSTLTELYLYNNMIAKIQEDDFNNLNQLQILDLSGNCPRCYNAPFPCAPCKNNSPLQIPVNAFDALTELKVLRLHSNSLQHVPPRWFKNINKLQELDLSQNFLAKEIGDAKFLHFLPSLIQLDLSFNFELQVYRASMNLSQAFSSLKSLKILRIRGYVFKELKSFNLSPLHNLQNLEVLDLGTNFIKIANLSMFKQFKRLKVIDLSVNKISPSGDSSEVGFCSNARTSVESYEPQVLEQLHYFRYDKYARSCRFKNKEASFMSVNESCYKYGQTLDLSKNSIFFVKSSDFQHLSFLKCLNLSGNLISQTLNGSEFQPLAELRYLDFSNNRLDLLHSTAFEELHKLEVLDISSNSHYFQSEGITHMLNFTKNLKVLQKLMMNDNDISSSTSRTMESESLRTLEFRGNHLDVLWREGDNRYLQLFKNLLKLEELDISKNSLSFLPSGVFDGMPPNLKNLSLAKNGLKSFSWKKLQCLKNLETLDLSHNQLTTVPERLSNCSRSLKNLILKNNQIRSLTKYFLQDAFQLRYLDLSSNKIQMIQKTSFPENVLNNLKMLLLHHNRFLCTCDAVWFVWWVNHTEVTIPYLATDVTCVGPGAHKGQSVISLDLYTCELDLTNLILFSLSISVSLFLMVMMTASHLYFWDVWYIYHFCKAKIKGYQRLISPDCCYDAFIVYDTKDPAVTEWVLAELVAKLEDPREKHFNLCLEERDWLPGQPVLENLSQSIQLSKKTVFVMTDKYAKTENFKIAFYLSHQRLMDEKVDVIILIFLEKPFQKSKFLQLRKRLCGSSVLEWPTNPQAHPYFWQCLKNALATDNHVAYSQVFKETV
Experimental: as §1, §2
HEK-BLUE-hTLR7 and HEK-BLUE-hTLR8 cell lines were purchased from Invivogen company and cultured in DMEM medium containing 4.5 g/L glucose (Sigma-Aldrich) and 10% fetal bovine serum under a condition of a temperature of 37° C., a humidity of 95%, and 5% CO2. […]
Cell treatment was as follows: The cells were removed from the incubator and centrifuged to remove the culture medium, resuspended in a T-150 flask with 10 mL of pre-warmed PBS. 12 mL of pre-warmed culture medium was added thereto, and the cells were pipetted gently up and down, and counted under a microscope. […]
20 μL/well of supernatant was pipetted into 180 μL of Quanti-Blue preheated to 37° C., and the mixture was incubated at 37° C. for 1.5 hours, and the absorbance (OD value) at 650 nm was measured with a spectrophotometer. […]

Structure (SMILES)	EC50 [1] [nM]	EC50 [2] [nM]
CCCN(CCC)C(=O)C1=Cc2ccc(C(=O)Nc3cnc4c(c3)CNCC4)nc2N=C(N)C1 [Compound 1, 8-amino-N^6,N^6-di-n-propyl-N^2-(5,6,7,8-tetrahydro-1,6-naphthyridin-3-yl)-7H-pyrido[2,3-b]azepine-2,6-dicarboxamide]	250 to 1000	–
CCCN(CCC)C(=O)C1=Cc2ccc(C3(C(=O)Nc4cnc5c(c4)CNCC5)CC3)cc2N=C(N)C1 [Compound 3, 2-amino-N,N-di-n-propyl-8-(1-((5,6,7,8-tetrahydro-1,6-naphthyridin-3-yl)carbamoyl)cyclopropyl)-3H-benzo[b]azepine-4-carboxamide]	100 to 250	–
CCCN(CCO)C(=O)C1=Cc2ccc(C(=O)Nc3cnc4c(c3)CNCC4)cc2N=C(N)C1 [Compound 13, 2-amino-N^4-(2-hydroxyethyl)-N^4-n-propyl-N^8-(5,6,7,8-tetrahydro-1,6-naphthyridin-3-yl)-3H-benzo[b]azepine-4,8-dicarboxamide]	250 to 1000	> 2000

The remaining lines, values ahead:

EC50 [1] [nM]	EC50 [2] [nM]	Structure (SMILES)
100 to 250	–	CCCN(CCO)C(=O)C1=Cc2ccc(C3(C(=O)Nc4cncc(CN)c4)CC3)cc2N=C(N)C1 [Compound 12, 2-amino-8-(1-((5-(aminomethyl)pyridin-3-yl)carbamoyl)cyclopropyl)-N-(2-hydroxyethyl)-N-n-propyl-3H-benzo[b]azepine-4-carboxamide]
< 100	–	CCCN(CCC)C(=O)C1=Cc2c(F)cc(C3(C(=O)Nc4cnc5c(c4)CNCC5)CC3)cc2N=C(N)C1 [Compound 5, 2-amino-6-fluoro-N,N-di-n-propyl-8-(1-((5,6,7,8-tetrahydro-1,6-naphthyridin-3-yl)carbamoyl)cyclopropyl)-3H-benzo[b]azepine-4-carboxamide]
